{"source": "patent US7435846B2", "about": "“Absorption and bioavailability of carotenoids, formulations and applications” (Industrial Organica, S.A. De C.V., priority 2006, dated 2008)", "design": "species or system human", "settings": "in vivo", "experimental": "Ten (10) healthy non smoking students (ranging in age from 22-27 years), were subjected to the following two treatments:\n(A) Four (4) weeks of ingesting one gelatin capsule at their noonday meal, containing 20 mg of crystalline lutein dispersed in soybean oil and after a 12 hours fast (overnight) blood samples were taken early the next morning for plasma analysis.\n(B) After a two (2) week interval washout period, the same group of subjects were given, during a period of four (4) weeks, a gelatin capsule containing a micellar dispersion of lutein diacetate (prepared as described in example 3) in soybean oil. Each capsule contained 24.2 mg of lutein diacetate and was ingested at lunch time. After a twelve (12) hour fast, blood samples were collected in the early morning of the next day for plasma analysis.", "data": [{"substance": "lutein diacetate", "values": [{"measurement": "ratio of the average absorption of the lutein diacetate divided by the average absorption of the free lutein", "value": 2.81, "unit": "times"}]}]}
